Legend:
Type in all cases: cell-based
L6-myotubes [1] = experiment: Glucose uptake (3H-2-deoxyglucose) in differentiated L6-myotubes; details: compound 1×10^−5 M
Experimental: (§1) L6-myoblasts were grown in Dulbecco's Modified Eagle's Medium (DMEM) containing 1 g/L glucose supplemented with 10% fetal bovine serum, 2 mM L-Glutamine, 50 U/mL penicillin, 50 μg/mL streptomycin and 10 mM HEPES. Cells were plated at 1×10^5 cells per mL in 24-well plates. After reaching 90% confluence the cells were grown in medium containing 2% FBS for 7 days where upon cells differentiated into myotubes.
Differentiated L6-myotubes were serum-starved overnight in medium containing 0.5% fatty-acid free BSA and stimulated with an agonist, with a final concentration of 1×10^−5 M. After 1 h 40 min the cells were washed with warm glucose free medium or PBS twice and another portion of agonist was added to the glucose free medium. After 20 min the cells were exposed to 50 nM ^3H-2-deoxyglucose for 10 min before washed with ice cold glucose free medium or PBS three times and lysed with 0.2 M NaOH, 400 μL/well, for 1 h at 60° C. The cell lysate was mixed with 4 mL scintillation buffer (Emulsifier Safe, Perkin Elmer) and the radioactivity was detected in a β-counter (Tri-Carb 4810TR, Perkin Elmer). The activity for each compound is compared to that of isoproterenol.

[2] = tested on: Intracellular cAMP levels; experiment: Measurement of intracellular cAMP levels in differentiated L6 cells; details: compound 1×10^−5 M, 15 min
Experimental: as §1
Differentiated cells were serum-starved overnight and stimulated with an agonist, final concentration 1×10^−5 M, for 15 min in stimulation buffer (HBSS supplemented with 1% BSA, 5 mM HEPES and 1 mM IBMX, pH 7.4). The medium was aspirated and 100 μL of 95% EtOH was added to each well of the 24-well plate and cells were kept at −20° C. overnight. The EtOH was allowed to evaporate and 500 μL of lysis buffer (1% BSA, 5 mM HEPES and 0.3% Tween-20, pH 7.4) was added to each well. The plate was kept at −80° C. for 30 min and then at −20° C. until the day of detection when the samples were thawed. Intracellular cAMP levels were detected using an alpha screen cAMP kit (6760635D from Perkin Elmer). The activity for each compound is compared to that of isoproterenol.

L6-myotubes [3] = experiment: Glucose uptake in L6-myotubes in the presence of the β2-antagonist ICI-118,551; details: compound 1×10^−5 M, ICI-118,551 1×10^−5 M
Experimental: as §1
Differentiated L6-myotubes were serum-starved overnight in medium containing 0.5% fatty-acid free BSA and were incubated with the β2-adrenergic receptor antagonist ICI-118,551 at a final concentration of 1×10^−5 M for 30 min. The cells were stimulated with a compound of the invention, at a final concentration of 1×10^−5 M. After 1 h 40 min the cells were washed twice with warm, glucose free medium or PBS and additional portions of the compound of the invention and the antagonist were added. After 20 min the cells were exposed to 50 nM ^3H-2-deoxyglucose for 10 min before washed with ice cold glucose free medium or PBS three times and lysed with 0.2 M NaOH, 400 μL/well, for 1 h at 60° C. The cell lysate was mixed with 4 mL scintillation buffer (Emulsifier Safe, Perkin Elmer) and the radioactivity was detected in a β-counter (Tri-Carb 4810TR, Perkin Elmer). The activity for each compound is compared to that of isoproterenol.

SMILES | Biological example 1: glucose uptake, activity compared to that of isoproterenol (L6-myotubes [1]) | Biological example 2: intracellular cAMP levels, activity compared to that of isoproterenol [2] | Biological example 3: glucose uptake in the presence of the β2-antagonist ICI-118,551, activity compared to that of isoproterenol (L6-myotubes [3]) | Emax at 10 µM (L6-myotubes [1]; read-out: Biological example 1: glucose uptake, activity compared to that of isoproterenol) | Emax at 10 µM ([2]; Rattus norvegicus, L6, 0.25 h, read-out: Biological example 2: intracellular cAMP levels, activity compared to that of isoproterenol)
CO[C@H]1CC[C@H](C[C@H]2CC[C@H]([C@H](O)c3cccc(F)c3)N2)CC1.Cl [Example 3, (R)-(3-Fluorophenyl)((2R,5R)-5-(((1r,4R)-4-methoxycyclohexyl)-methyl) -pyrrolidin-2-yl)methanol hydrochloride] | +++ (more than 75% of that of isoproterenol) | − (less than 25%) | − (less than 25%) | – | –
CO[C@H]1CC[C@H](C[C@H]2CC[C@H]([C@H](O)c3ccccc3F)N2)CC1.Cl [Example 7, (R)-(2-Fluorophenyl)((2R,5R)-5-(((1r,4S)-4-methoxycyclohexyl)methyl) -pyrrolidin-2-yl)methanol hydrochloride] | – | – | − (less than 25%) | > 75% | 25 to 50%
